Measurements: ChEMBL document CHEMBL5291721, “A preclinical secondary pharmacology resource illuminates target-adverse drug reaction associations of marketed drugs” (Nat Commun, 2023)

Legend:
Histamine H1 receptor [1] = molecular target: T1, Histamine H1 receptor (Homo sapiens, UniProt P35367); type: functional, cell-based
[2] = molecular target: T2, Gamma-aminobutyric acid receptor subunit alpha-1/alpha-2/beta-2/gamma-2 (Homo sapiens, UniProt P14867+P18507+P47869+P47870); type: functional, cell-based
Histamine H1 receptor [3] = molecular target: T1, Histamine H1 receptor; type: functional, cell-based; remark: listed apart in the source
[4] = molecular target: T2, Gamma-aminobutyric acid receptor subunit alpha-1/alpha-2/beta-2/gamma-2; type: functional, cell-based; remark: listed apart in the source
B1 bradykinin receptor = molecular target: T3, B1 bradykinin receptor (Homo sapiens, UniProt P46663)
T3 sequence (P46663 whole entry): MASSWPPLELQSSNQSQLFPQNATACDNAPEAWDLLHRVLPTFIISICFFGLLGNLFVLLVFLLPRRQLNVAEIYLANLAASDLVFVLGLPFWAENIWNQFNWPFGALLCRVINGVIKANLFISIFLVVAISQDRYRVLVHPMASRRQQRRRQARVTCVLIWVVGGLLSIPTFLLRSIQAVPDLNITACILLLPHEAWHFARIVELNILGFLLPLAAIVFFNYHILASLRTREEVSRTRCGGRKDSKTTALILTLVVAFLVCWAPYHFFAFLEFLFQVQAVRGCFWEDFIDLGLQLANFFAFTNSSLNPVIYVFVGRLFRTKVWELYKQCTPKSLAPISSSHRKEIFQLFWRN

[5] = molecular target: T4, Endothelin receptor type B (Homo sapiens, UniProt P24530)
T4 sequence (P24530 whole entry): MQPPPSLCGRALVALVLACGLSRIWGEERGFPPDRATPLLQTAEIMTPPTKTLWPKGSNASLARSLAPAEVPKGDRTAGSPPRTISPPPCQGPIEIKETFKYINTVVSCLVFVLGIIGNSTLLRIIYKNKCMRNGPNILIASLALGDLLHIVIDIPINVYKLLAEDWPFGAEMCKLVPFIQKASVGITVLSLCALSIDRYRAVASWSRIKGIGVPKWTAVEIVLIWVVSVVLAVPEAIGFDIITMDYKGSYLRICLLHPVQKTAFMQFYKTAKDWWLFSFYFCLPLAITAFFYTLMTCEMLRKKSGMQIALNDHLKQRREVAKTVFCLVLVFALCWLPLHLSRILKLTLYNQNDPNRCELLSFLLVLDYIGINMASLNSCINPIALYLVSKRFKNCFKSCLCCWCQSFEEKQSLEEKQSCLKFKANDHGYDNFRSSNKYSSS

[6] = molecular target: T5, Alpha-1A adrenergic receptor (Homo sapiens, UniProt P35348)
T5 sequence (P35348 whole entry): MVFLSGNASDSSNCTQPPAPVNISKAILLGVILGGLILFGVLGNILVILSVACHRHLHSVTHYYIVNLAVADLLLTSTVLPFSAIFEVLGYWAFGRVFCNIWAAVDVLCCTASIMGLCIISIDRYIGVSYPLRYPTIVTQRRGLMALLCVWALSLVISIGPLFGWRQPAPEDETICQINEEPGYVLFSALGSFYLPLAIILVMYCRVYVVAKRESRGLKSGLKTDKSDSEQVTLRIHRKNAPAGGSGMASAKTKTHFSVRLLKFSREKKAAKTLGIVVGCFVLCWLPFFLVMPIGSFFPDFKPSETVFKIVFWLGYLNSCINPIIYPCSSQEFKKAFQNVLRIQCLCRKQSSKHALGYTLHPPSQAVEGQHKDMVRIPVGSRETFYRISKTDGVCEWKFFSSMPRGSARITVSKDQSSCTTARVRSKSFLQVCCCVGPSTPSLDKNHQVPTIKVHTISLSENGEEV

D(1A) dopamine receptor = D(1A) dopamine receptor (Homo sapiens, UniProt P21728)
[7] = molecular target: T6, Gastric inhibitory polypeptide receptor (Homo sapiens, UniProt P48546)
T6 sequence (P48546 whole entry): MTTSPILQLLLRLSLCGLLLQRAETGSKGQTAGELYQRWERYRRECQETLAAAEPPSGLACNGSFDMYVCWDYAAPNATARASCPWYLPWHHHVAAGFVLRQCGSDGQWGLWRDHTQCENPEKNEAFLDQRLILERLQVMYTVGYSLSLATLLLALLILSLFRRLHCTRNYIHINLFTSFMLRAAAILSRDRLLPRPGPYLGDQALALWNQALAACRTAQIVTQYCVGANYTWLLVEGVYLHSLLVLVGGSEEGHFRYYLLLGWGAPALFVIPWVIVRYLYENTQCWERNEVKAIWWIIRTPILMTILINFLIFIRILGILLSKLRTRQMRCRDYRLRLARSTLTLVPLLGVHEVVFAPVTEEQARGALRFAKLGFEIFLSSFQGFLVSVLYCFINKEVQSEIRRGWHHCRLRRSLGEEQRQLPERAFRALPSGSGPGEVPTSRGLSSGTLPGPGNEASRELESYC

[8] = molecular target: 5-hydroxytryptamine receptor 6 (Homo sapiens, UniProt P50406)
Cannabinoid receptor 1 = Cannabinoid receptor 1 (Homo sapiens, UniProt P21554); type: functional
[9] = molecular target: T7, Peroxisome proliferator-activated receptor gamma (Homo sapiens, UniProt P37231); type: functional
T7 sequence (P37231 whole entry): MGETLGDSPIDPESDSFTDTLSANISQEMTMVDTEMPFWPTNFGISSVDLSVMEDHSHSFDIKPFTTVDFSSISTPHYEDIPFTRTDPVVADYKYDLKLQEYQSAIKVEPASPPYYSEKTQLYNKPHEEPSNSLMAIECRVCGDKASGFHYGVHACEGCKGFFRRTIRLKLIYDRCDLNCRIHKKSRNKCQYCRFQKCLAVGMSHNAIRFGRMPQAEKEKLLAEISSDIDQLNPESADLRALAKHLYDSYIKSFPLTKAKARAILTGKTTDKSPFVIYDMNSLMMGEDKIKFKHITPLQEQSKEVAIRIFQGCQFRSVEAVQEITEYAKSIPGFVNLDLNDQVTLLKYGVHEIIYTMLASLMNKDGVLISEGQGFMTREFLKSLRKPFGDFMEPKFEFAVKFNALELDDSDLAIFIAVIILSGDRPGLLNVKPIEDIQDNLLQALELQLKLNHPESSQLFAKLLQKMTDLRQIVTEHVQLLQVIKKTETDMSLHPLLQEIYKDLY

[10] = molecular target: T7, Peroxisome proliferator-activated receptor gamma; type: functional; remark: listed apart in the source

Measured: AC50
Also: assay procedure not described here.

Chain of D(1A) dopamine receptor (P21728 whole entry): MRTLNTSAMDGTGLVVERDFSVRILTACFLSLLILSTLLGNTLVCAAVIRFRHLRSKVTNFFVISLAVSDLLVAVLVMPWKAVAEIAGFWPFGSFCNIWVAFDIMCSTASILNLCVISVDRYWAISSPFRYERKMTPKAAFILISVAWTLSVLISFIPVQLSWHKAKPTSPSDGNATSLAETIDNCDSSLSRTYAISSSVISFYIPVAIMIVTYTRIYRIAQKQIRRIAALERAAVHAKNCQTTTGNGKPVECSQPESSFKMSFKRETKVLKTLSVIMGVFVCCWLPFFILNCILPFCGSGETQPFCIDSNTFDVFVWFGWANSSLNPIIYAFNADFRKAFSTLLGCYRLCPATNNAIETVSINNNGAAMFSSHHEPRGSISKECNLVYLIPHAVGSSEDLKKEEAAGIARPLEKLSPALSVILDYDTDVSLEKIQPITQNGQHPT
T1 sequence (P35367 whole entry): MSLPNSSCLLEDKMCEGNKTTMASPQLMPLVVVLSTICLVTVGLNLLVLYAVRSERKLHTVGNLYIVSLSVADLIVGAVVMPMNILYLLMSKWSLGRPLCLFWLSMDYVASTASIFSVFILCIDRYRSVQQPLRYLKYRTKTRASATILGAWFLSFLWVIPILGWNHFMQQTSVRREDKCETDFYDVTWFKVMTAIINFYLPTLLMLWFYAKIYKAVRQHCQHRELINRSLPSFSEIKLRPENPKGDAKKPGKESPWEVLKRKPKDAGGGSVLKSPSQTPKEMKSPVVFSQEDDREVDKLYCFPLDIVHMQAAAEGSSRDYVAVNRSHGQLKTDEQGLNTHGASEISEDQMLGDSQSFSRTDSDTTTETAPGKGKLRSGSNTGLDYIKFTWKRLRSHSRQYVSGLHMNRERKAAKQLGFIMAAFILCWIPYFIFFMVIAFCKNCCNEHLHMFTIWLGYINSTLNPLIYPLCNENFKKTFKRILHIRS
T2 sequence (P14867 whole entry): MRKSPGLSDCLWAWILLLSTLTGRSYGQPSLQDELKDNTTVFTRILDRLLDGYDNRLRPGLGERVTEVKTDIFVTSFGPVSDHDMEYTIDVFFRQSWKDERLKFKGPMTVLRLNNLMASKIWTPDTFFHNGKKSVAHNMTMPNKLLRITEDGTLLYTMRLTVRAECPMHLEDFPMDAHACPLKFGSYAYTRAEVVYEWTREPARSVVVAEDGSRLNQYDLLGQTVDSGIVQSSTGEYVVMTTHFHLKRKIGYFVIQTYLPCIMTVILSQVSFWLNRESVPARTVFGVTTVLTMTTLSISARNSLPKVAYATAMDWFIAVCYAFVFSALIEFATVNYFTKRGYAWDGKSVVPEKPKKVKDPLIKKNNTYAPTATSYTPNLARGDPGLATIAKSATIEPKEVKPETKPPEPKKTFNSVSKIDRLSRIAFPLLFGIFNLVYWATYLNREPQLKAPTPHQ
T2 sequence (P47870 whole entry): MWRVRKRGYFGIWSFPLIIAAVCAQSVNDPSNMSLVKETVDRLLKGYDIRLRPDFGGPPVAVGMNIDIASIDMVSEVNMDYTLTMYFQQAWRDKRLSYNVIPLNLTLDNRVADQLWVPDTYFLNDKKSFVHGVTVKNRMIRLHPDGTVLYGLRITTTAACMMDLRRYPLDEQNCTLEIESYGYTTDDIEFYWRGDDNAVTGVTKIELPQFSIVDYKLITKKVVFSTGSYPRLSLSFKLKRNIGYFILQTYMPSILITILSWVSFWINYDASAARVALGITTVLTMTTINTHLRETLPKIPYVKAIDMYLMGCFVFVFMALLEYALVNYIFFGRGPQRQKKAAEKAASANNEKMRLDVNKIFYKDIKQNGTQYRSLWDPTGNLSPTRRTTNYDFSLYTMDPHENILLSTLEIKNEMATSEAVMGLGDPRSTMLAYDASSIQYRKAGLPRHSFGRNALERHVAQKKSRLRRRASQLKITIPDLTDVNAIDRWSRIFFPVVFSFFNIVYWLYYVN
T2 sequence (P18507 whole entry): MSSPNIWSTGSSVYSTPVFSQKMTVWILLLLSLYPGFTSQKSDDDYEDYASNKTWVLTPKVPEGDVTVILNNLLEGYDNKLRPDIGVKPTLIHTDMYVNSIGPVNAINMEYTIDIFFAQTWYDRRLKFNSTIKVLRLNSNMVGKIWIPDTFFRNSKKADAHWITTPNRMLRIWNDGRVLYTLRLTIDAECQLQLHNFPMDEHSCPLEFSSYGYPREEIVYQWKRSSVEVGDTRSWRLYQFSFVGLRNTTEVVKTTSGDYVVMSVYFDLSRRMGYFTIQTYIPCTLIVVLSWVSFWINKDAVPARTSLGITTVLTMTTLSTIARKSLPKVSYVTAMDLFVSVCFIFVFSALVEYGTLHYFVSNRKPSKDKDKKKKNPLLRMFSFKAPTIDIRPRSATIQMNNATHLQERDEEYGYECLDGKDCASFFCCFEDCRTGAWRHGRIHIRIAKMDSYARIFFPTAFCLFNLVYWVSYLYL
T2 sequence (P47869 whole entry): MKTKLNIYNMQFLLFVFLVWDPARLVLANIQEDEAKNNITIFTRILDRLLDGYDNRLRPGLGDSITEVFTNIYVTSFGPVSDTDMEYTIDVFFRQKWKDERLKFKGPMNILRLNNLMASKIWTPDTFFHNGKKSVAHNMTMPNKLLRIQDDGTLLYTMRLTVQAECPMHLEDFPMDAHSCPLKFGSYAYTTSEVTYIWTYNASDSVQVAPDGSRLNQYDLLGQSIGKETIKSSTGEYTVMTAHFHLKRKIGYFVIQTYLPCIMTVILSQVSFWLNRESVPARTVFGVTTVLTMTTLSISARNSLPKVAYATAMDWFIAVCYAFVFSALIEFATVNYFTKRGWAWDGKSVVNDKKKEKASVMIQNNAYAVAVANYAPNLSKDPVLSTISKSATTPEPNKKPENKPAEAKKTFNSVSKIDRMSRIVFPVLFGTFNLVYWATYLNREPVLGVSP
Chain of Cannabinoid receptor 1 (P21554 whole entry): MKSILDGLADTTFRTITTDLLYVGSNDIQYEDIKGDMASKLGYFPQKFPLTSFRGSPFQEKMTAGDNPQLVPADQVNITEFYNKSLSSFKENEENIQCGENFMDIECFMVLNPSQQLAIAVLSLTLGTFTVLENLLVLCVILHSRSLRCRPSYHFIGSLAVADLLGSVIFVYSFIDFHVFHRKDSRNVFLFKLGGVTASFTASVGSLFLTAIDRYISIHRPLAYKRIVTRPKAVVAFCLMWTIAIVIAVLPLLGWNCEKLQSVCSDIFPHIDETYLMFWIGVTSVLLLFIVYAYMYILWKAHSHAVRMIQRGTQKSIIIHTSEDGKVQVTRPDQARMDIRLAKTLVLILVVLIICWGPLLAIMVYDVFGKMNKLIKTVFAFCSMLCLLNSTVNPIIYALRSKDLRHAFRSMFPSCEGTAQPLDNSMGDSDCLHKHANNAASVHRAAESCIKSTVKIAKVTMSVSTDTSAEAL
Chain of 5-hydroxytryptamine receptor 6 (P50406 whole entry): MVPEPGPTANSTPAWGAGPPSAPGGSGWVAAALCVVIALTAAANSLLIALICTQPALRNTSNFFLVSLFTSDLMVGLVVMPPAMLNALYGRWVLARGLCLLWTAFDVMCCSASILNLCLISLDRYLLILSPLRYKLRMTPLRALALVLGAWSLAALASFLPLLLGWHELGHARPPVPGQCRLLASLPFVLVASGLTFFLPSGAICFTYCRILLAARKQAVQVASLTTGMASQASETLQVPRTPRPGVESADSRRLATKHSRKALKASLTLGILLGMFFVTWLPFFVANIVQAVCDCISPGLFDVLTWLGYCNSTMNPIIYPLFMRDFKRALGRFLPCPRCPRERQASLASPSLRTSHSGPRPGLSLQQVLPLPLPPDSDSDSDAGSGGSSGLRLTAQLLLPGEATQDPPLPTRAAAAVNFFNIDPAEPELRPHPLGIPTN

C=C1CC[C@@]2(O)[C@H]3Cc4ccc(O)c5c4[C@@]2(CCN3CC2CC2)[C@H]1O5
> 30 µM: Histamine H1 receptor [1] | [2] | Histamine H1 receptor [3] | [4]

Nc1ncnc2c1ncn2[C@@H]1O[C@H](COP(=O)(O)O)[C@@H](O)[C@H]1O [ADENOSINE PHOSPHATE]
> 30 µM: Histamine H1 receptor [1] | [2] | Histamine H1 receptor [3] | [4]

COc1ccc2cccc(CCNC(C)=O)c2c1 [AGOMELATINE]
> 30 µM: B1 bradykinin receptor | [5] | [7]
> 10 µM: [6] | D(1A) dopamine receptor

CN1CCc2cccc3c2[C@H]1Cc1ccc(O)c(O)c1-3 [APOMORPHINE]
> 30 µM: B1 bradykinin receptor | [5] | [7]

CC(C)c1c(C(=O)Nc2ccccc2)c(-c2ccccc2)c(-c2ccc(F)cc2)n1CC[C@@H](O)C[C@@H](O)CC(=O)O [ATORVASTATIN]
> 30 µM: B1 bradykinin receptor | [5] | [7]

NC(CO)C(=O)NNCc1ccc(O)c(O)c1O (stereo not drawn) [BENSERAZIDE]
> 30 µM: Histamine H1 receptor [1] | B1 bradykinin receptor | [5] | Histamine H1 receptor [3] | [7]
> 10 µM: D(1A) dopamine receptor

CN(C)C(=O)OC1N=C(c2ccccc2)c2cc(Cl)ccc2N(C)C1=O (stereo not drawn) [CAMAZEPAM]
> 10 µM: [8] | Cannabinoid receptor 1 | [6] | D(1A) dopamine receptor
> 30 µM: B1 bradykinin receptor | [5] | [7]

CCCCCOC(=O)Nc1nc(=O)n([C@@H]2O[C@H](C)[C@@H](O)[C@H]2O)cc1F [CAPECITABINE]
> 30 µM: [2] | [9] | [10] | [4]

CC(C)(Oc1ccc(C2CC2(Cl)Cl)cc1)C(=O)O (stereo not drawn) [CIPROFIBRATE]
> 30 µM: [9] | [10]

[H]/N=C(/N)c1ccc(NCc2nc3cc(C(=O)N(CCC(=O)O)c4ccccn4)ccc3n2C)cc1 [DABIGATRAN]
> 30 µM: [2] | [9] | [10] | [4]

CN[C@@H](C)[C@H](O)c1ccccc1 [EPHEDRINE]
> 30 µM: B1 bradykinin receptor | [5] | [7]
> 10 µM: [6] | D(1A) dopamine receptor

CCNC(C)Cc1cccc(C(F)(F)F)c1 (stereo not drawn) [FENFLURAMINE]
> 30 µM: B1 bradykinin receptor | [5] | [7]

O=C1CN=C(c2ccccc2)c2cc(Cl)ccc2N1CC(F)(F)F [HALAZEPAM]
> 30 µM: Histamine H1 receptor [1] | [2] | [9] | Histamine H1 receptor [3] | [10] | [4]

CCCCCN(C)CCC(O)(P(=O)(O)O)P(=O)(O)O [IBANDRONIC ACID]
> 10 µM: [8] | Cannabinoid receptor 1 | [6] | D(1A) dopamine receptor
> 30 µM: B1 bradykinin receptor | [5] | [7]
